Measurements from patent EP3246445A1, “LIPOXIN A4 DELIVERY SYSTEM BY A POROUS ELECTROSPUN POLYMERIC MEMBRANE” (Universita' Degli Studi G. D Annunzio Chieti - Pescara, priority 2016, dated 2017).

Columns and labels:
[1] = Release of LXA4 from PEO/PDLLA membranes in PBS, RP-HPLC; assay type: physicochemical
Description: The release of LXA4 from the membrane was evaluated using phosphate-buffered saline solution (PBS) (pH 7.4, at 37°C). Pieces (3 cm x 2.5 cm, ∼33 mg, sample) of membranes, empty or LXA4-loaded, were placed in 100 mm dishes containing PBS (8 mL) and maintained at 37 °C, 5% CO2 and 95% humidity for 1, 3, 18, 48, 72 and 96 h. LXA4 release was assessed by HPLC analysis after solid phase extraction. Following incubation with PBS, membranes were diluted with 2 volumes of cold MeOH and stored at -80°C until extraction. All samples were extracted using C-18 cartridges (Bond Elut Varian, Agilent Technologies, Milan) as previously described (Romano M, Luciotti G, Gangemi S, Marinucci F, Prontera C, D'Urbano E, et al. Urinary excretion of lipoxin A(4) and related compounds: development of new extraction techniques for lipoxins. Laboratory investigation; a journal of technical methods and pathology. 2002;82(9):1253-4). Before extraction, PGB2 (50 ng/sample) was added to each sample as internal standard to calculate extraction recovery. Samples were then taken to dryness using a rotary evaporator, suspended in 10 mL of deionized (dd) H2O containing MeOH, acidified to pH 3.5 and rapidly loaded onto C-18 columns previously equilibrated with MeOH and (dd) H2O. After sample loading, columns were washed with (dd) H2O to restore a neutral pH. Samples were eluted with 7 mL of methyl formate and taken to dryness using a Speedvac apparatus. The dried samples were then suspended in MeOH (100 µl) and injected into an HPLC apparatus (Agilent 1100) equipped reverse phase-HPLC with a Hypersil C-18 column (300 mm x 4 mm x 5 µm, Waters) and a photodiode array detector (Waters) for online UV spectroscopy. LXA4 was identified by UV spectroscopy and considering the chromatographic retention time.
LXA4 releasing from the PEO/PDLLA membranes was investigated by incubating membranes with a PBS solution at pH 7.4 for varying times. LXA4 was quantitated by RP-HPLC. […] The maximum release was observed after 48 h (17%), followed by a progressive decrement at 72 h and 96 h (around 11%). Approximately 25% of LXA4 was recovered as trans isomer, in line with the content of Romano M, Serhan CN. Lipoxin generation by permeabilized human platelets. Biochemistry.

hPDLSCs = test: Proliferation assay with LXA4 released from PEO/PDLLA membrane; assay type: cell-based, Human; details: LXA4 eluted from PEO/PDLLA membranes in PBS
Description: Bioptic samples of periodontal ligament were obtained from volunteers aged 20-35 years, exempt from systemic or oral disease, after undesigning the informed consent deed. The study was approved by the Medical Ethic Committee of the "G. D'Annunzio" University, Chieti, Italy (n°266/17.04.14). The periodontal tissue obtained by bioptic samples, grinded and washed several times with PBS (Lonza, Basel, Switzerland) was cultured using TheraPEAK™MSCGM-CD™ BulletKit serum free (MSCGM-CD) medium for the growth of human mesamchimal steam cells (MSCGM-CD) (Lonza), to minimize the exposure to substances of non-human origin. Human periodontal ligament stem cells (hPDLSCs) were obtained and cultured as reported in Trubiani O, Piattelli A, Gatta V, Marchisio M, Diomede F, D'Aurora M, et al. Assessment of an efficient xeno-free culture system of human periodontal ligament stem cells. […]
For the proliferation assay with LXA4 released from PEO/PDLLA membrane, hPDLSCs (2 x 10^3 cells/well) were seeded in 96-well microplates with complete medium overnight at 37 °C and 5%CO2. […] Data were expressed as proliferation index, calculated as the ratio between values from cells exposed to membrane-eluted LXA4 and from cells exposed to vehicle only (ethanol) of LXA4. […]
The proliferation and migration of hPDLSC growth a direct contact with fragment of LXA4-loaded membrane were evaluated. […]

- LXA4 released ([1]; PBS pH 7.4, 37 °C, 72 h): around 11%
- LXA4 released ([1]; PBS pH 7.4, 37 °C, 96 h): around 11%
- LXA4 released, maximum release ([1]; PBS pH 7.4, 37 °C, after 48 h): 17%
- LXA4 released, of the total LXA4 added to membranes ([1]; PBS pH 7.4, 37 °C, within 3 h): approximately 15%
- LXA4 recovered as trans isomer ([1]; of the total LXA4 eluted from the membranes): Approximately 25%
SMILES: CCCCC[C@H](O)/C=C/C=C\C=C\C=C\[C@@H](O)[C@@H](O)CCCC(=O)O [LXA4, Lipoxin A4]
- biological activities on hPDLSCs after release (hPDLSCs): retained its biological activities on hPDLSCs
